Measurements from US7097977B1, “Target of anticancer agent” (priority 2000, dated 2006).

Tested on: rad51c, rad51d, xrcc2 and xrcc3 mutant DT40 cells
Test: colony survival assay on methyl cellulose containing cisplatin
Type: cell-based, avian
Conditions: continuous cisplatin in methyl cellulose plate; each mutant vs normal cells
Method: Further, the cells were plated on a plate of methyl cellulose containing cisplatin (manufactured by NIPPON KAYAKU CO., LTD.), and cultured in an atmosphere of 5% CO2 and 20% O2, at humidity of 100%, and 39° C. Thereafter, the colony survival assay was carried out, thereby evaluating sensitivity of the cells to cisplatin.
However, as shown in the panel (B) of FIG. 3, each mutant was about 8-fold more sensitive than normal cells to killing by cisplatin (cis-diamminedichloroplatinum-II), a DNA cross-linking agent that has been widely used in chemotherapy. The complementation of these mutants with human cDNAs corresponding to mutant genes in these mutants restored their cisplatin sensitivity to nearly normal levels.

## N.N.[Cl][Pt][Cl] [cisplatin, cis-diamminedichloroplatinum-II]
  sensitivity of each mutant to killing relative to normal cells: about 8 fold
